From patent US20060069132A1, “Azolecarboxamide herbicides” (priority 2004, published 2006)

Legend:
Assay in all cases: Test E pre-/postemergence herbicide test
[1] = test system: johnsongrass; assay type: in vivo, Sorghum halepense
In short: (§1)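 Pre-/postemergence spray, solvent + surfactant vehicle; post timing 1- to 4-leaf stage (2–18 cm). Greenhouse 12–14 d. Visual score 0 (no effect) to 100 (complete control) relative to controls.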

[2] = test system: bermudagrass; assay type: in vivo, Cynodon dactylon
In short: as §1

[3] = test system: annual bluegrass; assay type: in vivo, Poa annua
In short: as §1

[4] = test system: dallisgrass; assay type: in vivo, Paspalum dilatatum
In short: as §1

[5] = test system: common purslane; assay type: in vivo, Portulaca oleracea
From the text: Seeds of plant species selected from bipinnate beggarticks (Bidens bipinnata L.), hairy beggarticks (Bidens radiata Thuill.), bermudagrass (Cynodon dactylon (L.) Pers.), Surinam grass (Urochloa decumbens (Staph) R. D. Webster, previously named Brachiaria decumbens Stapf), large crabgrass (Digitaria sanguinalis (L.) Scop.), green foxtail (Setaria viridis (L.) P. Beauv.), goosegrass (Eleusine indica (L.) Gaertn.), johnsongrass (Sorghum halepense (L.) Pers.), kochia (Kochia scoparia (L.) Schrad.), pitted morningglory (Ipomoea lacunosa L.), purple nutsedge (Cyperus rotundus L.), common ragweed (Ambrosia elatior L.), mustard (Brassica nigra (L.) W. D. J. Koch), guineagrass (Panicum maximum Jacq.), dallisgrass (Paspalum dilatatum Poir.), barnyardgrass (Echinochloa crus-galli (L). P. Beauv.), southern sandbur (Cenchrus echinatus L.), common sowthistle (Sonchus oleraceous L.), prickly sida (Sida spinosa L.), Italian ryegrass (Lolium multiflorum Lam.), common purslane (Portulaca oleracea L.), broadleaf signalgrass (Brachiaria platyphylla (Griseb.) Nash), common groundsel (Senecio vulgaris L.), common chickweed (Stellaria media (L.) Vill/Cyr.), tropical spiderwort (Commelina benghalensis L.), annual bluegrass (Poa annua L.), downy bromegrass (Bromus tectorum L.), itchgrass (Rottboellia cochinchinensis (L.) L.f.), quackgrass (Elytrigia repens (L.) Nevski), Canada horseweed (Erigeron Canadensis L.), field bindweed (Convolvulus arvensis L.), spotted spurge (Euphorbia maculata L.), common mallow (Malva sylvestris (=s silvestris) L.), and Russian thistle (Salsola kali L. ssp. Ruthenica (Iljin) Soo) were planted and treated preemergence with test chemicals formulated in a non-phytotoxic solvent mixture which included a surfactant.
At the same time, plants selected from these weed species were treated with postemergence applications of some of the test chemicals formulated in the same manner. Plants ranged in height from 2 to 18 cm (1- to 4-leaf stage) for postemergence treatments. Treated plants and controls were maintained in a greenhouse for 12 to 14 days, after which time all species were compared to controls and visually evaluated. Plant response ratings, summarized in Table E, are based on a scale of 0 to 100 where 0 is no effect and 100 is complete control. A dash (-) response means no test result.

[6] = test system: tropical spiderwort; assay type: in vivo, Commelina benghalensis
In short: as §1

[7] = test system: common ragweed; assay type: in vivo, Ambrosia elatior
In short: as §1

[8] = test system: itchgrass; assay type: in vivo, Rottboellia cochinchinensis
In short: as §1

[9] = test system: quackgrass; assay type: in vivo, Elytrigia repens
In short: as §1

[10] = test system: Surinam grass; assay type: in vivo, Urochloa decumbens
In short: as §1

[11] = test system: common mallow; assay type: in vivo, Malva sylvestris
In short: as §1

[12] = Postemergence, 500 g ai/ha, scale 0 to 100
[13] = Postemergence, 250 g ai/ha, scale 0 to 100
[14] = Preemergence, 62 g ai/ha, scale 0 to 100
[15] = Preemergence, 125 g ai/ha, scale 0 to 100
[16] = Preemergence, 250 g ai/ha, scale 0 (no effect) to 100 (complete control)
[17] = Preemergence, 500 g ai/ha, scale 0 (no effect) to 100 (complete control)
[18] = postemergence, 125 g ai/ha, scale 0 to 100
[19] = postemergence, 62 g ai/ha, scale 0 to 100

CCn1nc(C(C)(C)C)cc1C(=O)Nc1cc(C(=O)N(C)C)ccn1 [Compound 156, 2-[[[3-(1,1-dimethylethyl)-1-ethyl-1H-pyrazol-5-yl]carbonyl]amino]-N,N-dimethyl-4-pyridinecarboxamide]
70: Plant response rating, Mallow [11, 14]
85: Plant response rating, Johnsongrass [1, 19] | Plant response rating, Dallisgrass [4, 18]
80: Plant response rating, Spiderwort [6, 17] | Plant response rating, Ragweed [7, 19] | Plant response rating, Itchgrass [8, 19] | Plant response rating, Surinam Grass [10, 19] | Plant response rating, Mallow [11, 19]
90: Plant response rating, Bluegrass [3, 19] | Plant response rating, Dallisgrass [4, 12] | Plant response rating, Dallisgrass [4, 13] | Plant response rating, Dallisgrass [4, 14] | Plant response rating, Ragweed [7, 13] | Plant response rating, Ragweed [7, 15] | Plant response rating, Ragweed [7, 18] | Plant response rating, Quackgrass [9, 15] | Plant response rating, Mallow [11, 18]
95: Plant response rating, Johnsongrass [1, 14] | Plant response rating, Johnsongrass [1, 18] | Plant response rating, Bermudagrass [2, 13] | Plant response rating, Bermudagrass [2, 14] | Plant response rating, Bermudagrass [2, 18] | Plant response rating, Bluegrass [3, 14] | Plant response rating, Bluegrass [3, 15] | Plant response rating, Bluegrass [3, 18] | Plant response rating, Dallisgrass [4, 15] | Plant response rating, Ragweed [7, 16] | Plant response rating, Itchgrass [8, 13] | Plant response rating, Itchgrass [8, 18] | Plant response rating, Quackgrass [9, 13] | Plant response rating, Quackgrass [9, 16] | Plant response rating, Quackgrass [9, 18] | Plant response rating, Surinam Grass [10, 17] | Plant response rating, Surinam Grass [10, 18] | Plant response rating, Mallow [11, 13]
50: Plant response rating, Spiderwort [6, 13] | Plant response rating, Spiderwort [6, 15] | Plant response rating, Spiderwort [6, 16] | Plant response rating, Ragweed [7, 14] | Plant response rating, Quackgrass [9, 14] | Plant response rating, Surinam Grass [10, 14]
65: Plant response rating, Bermudagrass [2, 19] | Plant response rating, Spiderwort [6, 12]
30: Plant response rating, Spiderwort [6, 14] | Plant response rating, Spiderwort [6, 18]
75: Plant response rating, Dallisgrass [4, 19] | Plant response rating, Purslane [5, 19] | Plant response rating, Quackgrass [9, 19] | Plant response rating, Surinam Grass [10, 15]
20: Plant response rating, Spiderwort [6, 19]
98: Plant response rating, Bermudagrass [2, 12] | Plant response rating, Bluegrass [3, 12] | Plant response rating, Bluegrass [3, 13] | Plant response rating, Ragweed [7, 12] | Plant response rating, Itchgrass [8, 12] | Plant response rating, Quackgrass [9, 12] | Plant response rating, Surinam Grass [10, 13]
100: Plant response rating, Johnsongrass [1, 12] | Plant response rating, Johnsongrass [1, 13] | Plant response rating, Johnsongrass [1, 15] | Plant response rating, Johnsongrass [1, 16] | Plant response rating, Johnsongrass [1, 17] | Plant response rating, Bermudagrass [2, 15] | Plant response rating, Bermudagrass [2, 16] | Plant response rating, Bermudagrass [2, 17] | Plant response rating, Bluegrass [3, 16] | Plant response rating, Bluegrass [3, 17] | Plant response rating, Dallisgrass [4, 16] | Plant response rating, Dallisgrass [4, 17] | Plant response rating, Purslane [5, 12] | Plant response rating, Purslane [5, 13] | Plant response rating, Purslane [5, 14] | Plant response rating, Purslane [5, 15] | Plant response rating, Purslane [5, 16] | Plant response rating, Purslane [5, 17] | Plant response rating, Purslane [5, 18] | Plant response rating, Ragweed [7, 17] | Plant response rating, Itchgrass [8, 14] | Plant response rating, Itchgrass [8, 15] | Plant response rating, Itchgrass [8, 16] | Plant response rating, Itchgrass [8, 17] | Plant response rating, Quackgrass [9, 17] | Plant response rating, Surinam Grass [10, 12] | Plant response rating, Mallow [11, 12] | Plant response rating, Mallow [11, 15] | Plant response rating, Mallow [11, 16] | Plant response rating, Mallow [11, 17]

CCNC(=O)c1ccc(F)c(NC(=O)c2cn(C(C)(C)C)nc2CC)c1 [Compound 193]
40: Plant response rating, Johnsongrass [1, 19] | Plant response rating, Dallisgrass [4, 14] | Plant response rating, Dallisgrass [4, 18]
0: Plant response rating, Quackgrass [9, 19]
80: Plant response rating, Johnsongrass [1, 12] | Plant response rating, Bluegrass [3, 14] | Plant response rating, Spiderwort [6, 15] | Plant response rating, Ragweed [7, 16] | Plant response rating, Itchgrass [8, 16] | Plant response rating, Quackgrass [9, 12] | Plant response rating, Quackgrass [9, 13] | Plant response rating, Surinam Grass [10, 15]
30: Plant response rating, Ragweed [7, 18] | Plant response rating, Itchgrass [8, 19]
20: Plant response rating, Johnsongrass [1, 14] | Plant response rating, Bluegrass [3, 19] | Plant response rating, Purslane [5, 19] | Plant response rating, Spiderwort [6, 18] | Plant response rating, Itchgrass [8, 14] | Plant response rating, Mallow [11, 19]
60: Plant response rating, Bermudagrass [2, 19] | Plant response rating, Purslane [5, 13] | Plant response rating, Purslane [5, 15] | Plant response rating, Purslane [5, 18] | Plant response rating, Itchgrass [8, 13] | Plant response rating, Itchgrass [8, 18] | Plant response rating, Quackgrass [9, 15] | Plant response rating, Mallow [11, 14] | Plant response rating, Mallow [11, 18]
85: Plant response rating, Johnsongrass [1, 16] | Plant response rating, Bermudagrass [2, 14] | Plant response rating, Bluegrass [3, 12] | Plant response rating, Purslane [5, 12] | Plant response rating, Surinam Grass [10, 13]
95: Plant response rating, Johnsongrass [1, 17] | Plant response rating, Bermudagrass [2, 12] | Plant response rating, Dallisgrass [4, 15] | Plant response rating, Dallisgrass [4, 16] | Plant response rating, Spiderwort [6, 17] | Plant response rating, Ragweed [7, 17] | Plant response rating, Quackgrass [9, 17] | Plant response rating, Mallow [11, 15] | Plant response rating, Mallow [11, 16] | Plant response rating, Mallow [11, 17]
50: Plant response rating, Bluegrass [3, 18] | Plant response rating, Spiderwort [6, 13] | Plant response rating, Ragweed [7, 14] | Plant response rating, Ragweed [7, 15]
75: Plant response rating, Johnsongrass [1, 15] | Plant response rating, Ragweed [7, 12] | Plant response rating, Itchgrass [8, 12]
70: Plant response rating, Johnsongrass [1, 13] | Plant response rating, Johnsongrass [1, 18] | Plant response rating, Bluegrass [3, 13] | Plant response rating, Spiderwort [6, 12] | Plant response rating, Ragweed [7, 13] | Plant response rating, Itchgrass [8, 15] | Plant response rating, Quackgrass [9, 16] | Plant response rating, Quackgrass [9, 18] | Plant response rating, Surinam Grass [10, 18]
10: Plant response rating, Dallisgrass [4, 19] | Plant response rating, Ragweed [7, 19] | Plant response rating, Quackgrass [9, 14] | Plant response rating, Surinam Grass [10, 19]
90: Plant response rating, Bermudagrass [2, 13] | Plant response rating, Bermudagrass [2, 18] | Plant response rating, Dallisgrass [4, 12] | Plant response rating, Dallisgrass [4, 13] | Plant response rating, Spiderwort [6, 16] | Plant response rating, Surinam Grass [10, 12] | Plant response rating, Mallow [11, 12] | Plant response rating, Mallow [11, 13]
100: Plant response rating, Bermudagrass [2, 15] | Plant response rating, Bermudagrass [2, 16] | Plant response rating, Bermudagrass [2, 17] | Plant response rating, Bluegrass [3, 15] | Plant response rating, Bluegrass [3, 16] | Plant response rating, Bluegrass [3, 17] | Plant response rating, Dallisgrass [4, 17] | Plant response rating, Purslane [5, 16] | Plant response rating, Purslane [5, 17] | Plant response rating, Itchgrass [8, 17] | Plant response rating, Surinam Grass [10, 17]
